Here are results for one compound from US11040081B2 (CORPORATION GENACOL CANADA INC., priority 2016, dated 2021).

Molecules are shown by their SMILES.

The subject of assay [1] is patients diagnosed with osteoarthritis of the knee. The assay can be described thus: Filipino study: WOMAC osteoarthritis index, Likert version. As to conditions: Likert 0-4. The class given is in vivo, human. On the procedure:
Experimental, randomized, single blind observer, open-labeled, controlled trial. […] Group A subjects were given the oral collagen supplement (Genacol®, Blainville, Qc, Canada) 400 mg/capsule, 3 capsules daily at bedtime for 6 months, and a topical analgesic needed for knee pain. Group B, the control group, received the standard treatment using an oral non-steroidal inflammatory drug, in the form of aceclofenac 100 mg/tablet, 1 tablet twice a day for 5 days initially then as needed for pain, and topical analgesic (ketoprofen gel) to be applied twice a day as needed for pain. Both groups underwent physical therapy three times a week for two weeks. Heating modalities, range of motion exercises, and muscle strengthening exercises were administered on each therapy session. Follow up evaluation was done every month. On the sixth month of follow up, repeat radiography evaluation of the involved knee was done to determine if there were any changes in the knee joint. Compliance to the study medication was determined by asking the patient on their missed doses and by counting the remaining unconsumed capsules. Symptoms of osteoarthritis were assessed using the Western Ontario and McMaster Universities (WOMAC) osteoarthritis index, a validated and disease-specific questionnaire separately addressing severity of joint pain (5 questions), stiffness (2 questions), and limitation of physical function (17 questions) in the 48 hours before assessment. The Likert Version of WOMAC is rated on an ordinal scale of 0 to 4 with lower scores indicating lower levels of symptoms or physical disability. […] There is also an index score or global score, which is most commonly calculated by summating the scores for the 3 subscales. The questionnaire is self administered and takes 5 to 10 minutes to complete. Data was presented as mean±SD or frequency and percent distribution whichever was applicable. Chi square test was performed to indicate any significant difference in the distribution of male and female patients between the two groups while t-test was performed to check for any significant difference in characteristics that were continuous variables. Paired sample t-test was used to compare the significance in change in values (WOMAC and medial knee joint space) of the two groups from baseline to the sixth month follow up.

Assay [2] shares this test system. The assay is described as follows: Filipino study: radiographic medial knee joint space width. The class given is in vivo, human. The following applies: weight-bearing anteroposterior radiograph. As to the method:
Group A subjects were given the oral collagen supplement (Genacol®, Blainville, Qc, Canada) 400 mg/capsule, 3 capsules daily at bedtime for 6 months, and a topical analgesic needed for knee pain. Group B, the control group, received the standard treatment using an oral non-steroidal inflammatory drug, in the form of aceclofenac 100 mg/tablet, 1 tablet twice a day for 5 days initially then as needed for pain, and topical analgesic (ketoprofen gel) to be applied twice a day as needed for pain. Both groups underwent physical therapy three times a week for two weeks. Heating modalities, range of motion exercises, and muscle strengthening exercises were administered on each therapy session. Follow up evaluation was done every month. On the sixth month of follow up, repeat radiography evaluation of the involved knee was done to determine if there were any changes in the knee joint. Compliance to the study medication was determined by asking the patient on their missed doses and by counting the remaining unconsumed capsules. […] Using a standard ruler in millimeters, one experienced radiologist who was blinded as to the treatment of each subject measured the narrowest medial compartment of the tibiofemoral joint of each radiographed knee done at the start of the study. […]

As for `O=C(O)COC(=O)Cc1ccccc1Nc1c(Cl)cccc1Cl` [Group B, aceclofenac], the “WOMAC Score, mean” value is recorded as 2.42 in assay [1] (2nd ff-up (monthly follow-up)); 2.29 in assay [1] (3rd ff-up (monthly follow-up)); 2.26 in assay [1] (4th ff-up (monthly follow-up)); 2.17 in assay [1] (5th ff-up (monthly follow-up)); 1.87 in assay [1] (6th ff-up (sixth month)); 2.91 in assay [1] (Baseline, Group A n=55, Group B n=58). In addition, the entries for the “Median Knee Joint Space, mean” value in assay [2] (6th ff-up (sixth month)) and in assay [2] (Baseline) were 3.8 mm and 4.3 mm, respectively.
